The record followed here is US10829499B2, “Tetracyclic heterocycle compounds useful as HIV integrase inhibitors” (MERCK SHARP & DOHME CORP., priority 2016, dated 2020).

Read-outs that look alike come from different tables or passages of the source.

This test deals with HIV-1 (NL4-3 strain). Kind of test: Assay for Inhibition of HIV Replication (kinetic assay, MT4-gag-GFP reporter cell line; VIKING). The test is classed as cell-based. As for the experimental part: This assay is a kinetic assay that employs a reporter cell line (MT4-gag-GFP) to quantify the number of new cells infected in each round of replication.
MT4-GFP cells (250,000 cells/ml) were bulk-infected with HIV-1 (NL4-3 strain) at low multiplicity of infection (MOI) in RPMI cell culture medium+10% FBS for 24 hours. Cells were then washed once in RPMI cell culture medium+10% FBS and resuspended in RPMI cell culture medium+0% or 10% or 100% normal human serum (NHS). Test compounds were serial-diluted in DMSO on an ECHO® liquid handler. The infected MT4-GFP cells were added to a 384-well poly-D-lysine coated black plate with clear bottom in which the diluted test compounds were placed. The cells were seeded at 8,000 cells per well and the final DMSO concentration was 0.4%. The infected cells (Green GFP cells) were quantified at both 24 and 48 hours post incubation using Acumen eX3. Viral reproductive ratio (R0) was determined using the number of infected cells at 48 hours divided by the number of infected cells at 24 hours. Percent viral growth inhibition was calculated by [1-(R-Rtripledrug),/(RDMSO-Rtripledrug)]*100. Compound potency IP or IC50 was determined by a 4-parameter dose response curve analysis. In vitro potency in the cell-based assay in the absence of normal human serum (NHS) and the presence of 100% NHS.

Setting [1] is: Human immunodeficiency virus 1, NL43, MT4-GFP cells infected with HIV-1 NL4-3, 0% normal human serum (NHS), read-out: VIKING IP50 (nM) with 0% NHS.
Setting [2] is: Human immunodeficiency virus 1, NL43, MT4-GFP cells infected with HIV-1 NL4-3, 100% normal human serum (NHS), read-out: VIKING IP50 (nM) with 100% NHS.
The mark [3] stands for this setting: MT4-GFP cells infected with HIV-1 NL4-3, 100% normal human serum (NHS), read-out: VIKING IP50 (nM) with 100% NHS.
[4] abbreviates: MT4-GFP cells infected with HIV-1 NL4-3, 0% normal human serum (NHS), read-out: VIKING IP50 (nM) with 0% NHS.

Consider `COc1cc(F)cc(F)c1CNC(=O)c1c2n3c(c(O)c1=O)C(=O)N1CCCOC1C3CC2` (racemic) [Compound 59], for which the IC50 runs as follows: under setting [1], 3.08 nM; under setting [2], 8400 nM.
Consider `O=C(NCc1cccc(Cl)c1F)c1c2n3c(c(O)c1=O)C(=O)N1CCOC1C3CC2` (single isomer, unassigned) [Compound 3], for which the IC50 under setting [1] worked out at 0.478 nM and the IC50 under setting [3] turned out to be 372 nM.
For `O=C(NCc1cccc(Cl)c1F)c1c2n3c(c(O)c1=O)C(=O)N1CCOC1C3CC2` (single isomer, unassigned) [Compound 4], the IC50 stood at 0.439 nM under setting [4] and 93.6 nM under setting [3].
In the case of `O=C(NCc1cccc(Cl)c1F)c1c2n3c(c(O)c1=O)C(=O)N1CCOC1C3CC2` (single isomer, unassigned) [Compound 5], the IC50 by setting is: under setting [4], 0.409 nM; under setting [3], 2250 nM.
Consider `O=C(NCc1ccc(F)cc1F)c1c2n3c(c(O)c1=O)C(=O)N1CCOC1C3CC2` (single isomer, unassigned) [Compound 6], for which the IC50 by setting is: under setting [4], 0.825 nM; under setting [3], 7910 nM.
Regarding `O=C(NCc1ccc(F)cc1F)c1c2n3c(c(O)c1=O)C(=O)N1CCOC1C3CC2` (single isomer, unassigned) [Compound 7], the IC50 reads like this: under setting [4], 2.15 nM; under setting [3], 1410 nM.
For the molecule `O=C(NCc1ccc(F)cc1F)c1c2n3c(c(O)c1=O)C(=O)N1CCOC1C3CC2` (single isomer, unassigned) [Compound 8], the IC50 runs as follows: under setting [4], 1 nM; under setting [3], 245 nM.
`O=C(NCc1ccc(F)cc1F)c1c2n3c(c(O)c1=O)C(=O)N1CCOC1C3CC2` (single isomer, unassigned) [Compound 9]: the IC50 stood at 0.7 nM under setting [1] and 1130 nM under setting [3].
Take `O=C(NCc1ccccc1F)c1c2n3c(c(O)c1=O)C(=O)N1CCOC1C3CC2` (single isomer, unassigned) [Compound 10]: the IC50 is, setting by setting: under setting [1], 0.813 nM; under setting [3], 226 nM.
In the case of `O=C(NCc1ccccc1F)c1c2n3c(c(O)c1=O)C(=O)N1CCOC1C3CC2` (single isomer, unassigned) [Compound 11], the IC50 by setting is: under setting [4], 1.09 nM; under setting [3], 589 nM.
For the molecule `O=C(NCc1ccccc1F)c1c2n3c(c(O)c1=O)C(=O)N1CCOC1C3CC2` (single isomer, unassigned) [Compound 12], the IC50 came to 1.39 nM under setting [4] and 892 nM under setting [3].
As for `O=C(NCc1ccccc1F)c1c2n3c(c(O)c1=O)C(=O)N1CCOC1C3CC2` (single isomer, unassigned) [Compound 13], the IC50 is, setting by setting: under setting [4], 0.827 nM; under setting [3], 5520 nM.
As to `O=C(NCc1c(F)cccc1F)c1c2n3c(c(O)c1=O)C(=O)N1CCOC1C3CC2` (single isomer, unassigned) [Compound 14], the IC50 runs as follows: under setting [4], 0.827 nM; under setting [3], 194 nM.
With `O=C(NCc1c(F)cccc1F)c1c2n3c(c(O)c1=O)C(=O)N1CCOC1C3CC2` (single isomer, unassigned) [Compound 15], the IC50 came out at 0.609 nM under setting [4] and 373 nM under setting [3].
Turning to `O=C(NCc1c(F)cccc1F)c1c2n3c(c(O)c1=O)C(=O)N1CCOC1C3CC2` (single isomer, unassigned) [Compound 16], the IC50 turned out to be 8000 nM under setting [2] and 6.28 nM under setting [4].
For `O=C(NCc1c(F)cccc1F)c1c2n3c(c(O)c1=O)C(=O)N1CCOC1C3CC2` (single isomer, unassigned) [Compound 17], the IC50 is, setting by setting: under setting [4], 7.09 nM; under setting [3], 7940 nM.
For `O=C(NCc1c(F)cc(F)cc1F)c1c2n3c(c(O)c1=O)C(=O)N1CCOC1C3CC2` (single isomer, unassigned) [Compound 18], the IC50 runs as follows: under setting [1], 0.483 nM; under setting [2], 8000 nM.
Consider `O=C(NCc1c(F)cc(F)cc1F)c1c2n3c(c(O)c1=O)C(=O)N1CCOC1C3CC2` (single isomer, unassigned) [Compound 19], for which the IC50 reads like this: under setting [4], 0.539 nM; under setting [3], 1230 nM.
For `O=C(NCc1c(F)cc(F)cc1F)c1c2n3c(c(O)c1=O)C(=O)N1CCOC1C3CC2` (single isomer, unassigned) [Compound 20], the IC50 by setting is: under setting [4], 0.727 nM; under setting [3], 602 nM.
